Test results taken from a flash point compilation (Sun et al. 2020).

Structure (SMILES)	flash point [°C]
CC(O)COC(C)(C)C (configuration not stated) [1-[(2-methylpropan-2-yl)oxy]propan-2-ol]	44.00
CC(O)CN(CC(C)O)CC(C)O (configuration not stated) [1-[bis(2-hydroxypropyl)amino]propan-2-ol]	160.00
O=P(N1CC1)(N1CC1)N1CC1 [1-[bis(aziridin-1-yl)phosphoryl]aziridine]	163.00
CCCCOP(=O)(CCCC)OCCCC [1-[butoxy(butyl)phosphoryl]oxybutane]	154.00
CC(O)CN (configuration not stated) [1-aminopropan-2-ol]	77.00
Cc1ccccc1Br [1-bromo-2-methylbenzene]	79.00
Cc1ccc(Br)cc1 [1-bromo-4-methylbenzene]	85.00
Brc1ccc(-c2ccccc2)cc1 [1-bromo-4-phenylbenzene]	143.00
CC(CCl)OC(C)CCl (configuration not stated) [1-chloro-2-(1-chloropropan-2-yloxy)propane]	85.00
ClCCOCCCl [1-chloro-2-(2-chloroethoxy)ethane]	55.00
ClCCOCOCCCl [1-chloro-2-(2-chloroethoxymethoxy)ethane]	110.00
C=COCCCl [1-chloro-2-ethenoxyethane]	16.00
O=[N+]([O-])c1ccccc1Cl [1-chloro-2-nitrobenzene]	127.00
FC(F)(F)c1ccc(Cl)cc1 [1-chloro-4-(trifluoromethyl)benzene]	47.00
O=C=Nc1ccc(Cl)cc1 [1-chloro-4-isocyanatobenzene]	110.00
O=[N+]([O-])c1ccc(Cl)cc1 [1-chloro-4-nitrobenzene]	110.00
CCCCCCCCCCCCCl [1-chlorododecane]	113.00
Clc1cccc2ccccc12 [1-chloronaphthalene]	121.00
CC(C)c1cc(OO)cc(C(C)C)c1 [1-hydroperoxy-3,5-di(propan-2-yl)benzene]	79.00
COc1ccccc1[N+](=O)[O-] [1-methoxy-2-nitrobenzene]	142.00
C=CCc1ccc(OC)cc1 [1-methoxy-4-prop-2-enylbenzene]	81.00

More lines, now with the values ahead:

flash point [°C]	Structure (SMILES)
54.00	CC(O)CBr (configuration not stated) [1-bromopropan-2-ol]
52.00	Cc1ccccc1Cl [1-chloro-2-methylbenzene]
-1.00	CC(C)=CCl [1-chloro-2-methylprop-1-ene]
47.00	FC(F)(F)c1cccc(Cl)c1 [1-chloro-3-(trifluoromethyl)benzene]
52.00	Cc1cccc(Cl)c1 [1-chloro-3-methylbenzene]
127.00	O=[N+]([O-])c1cccc(Cl)c1 [1-chloro-3-nitrobenzene]
150.00	CCC(C(c1ccc(Cl)cc1)c1ccc(Cl)cc1)[N+](=O)[O-] (configuration not stated) [1-chloro-4-[1-(4-chlorophenyl)-2-nitrobutyl]benzene]
157.00	C1=CC(c2ccc(C3CC=CCC3)cc2)CCC1 (configuration not stated) [1-cyclohex-2-en-1-yl-4-cyclohex-3-en-1-ylbenzene]
-9.00	C=COCC(C)C [1-ethenoxy-2-methylpropane]
60.00	C=Cc1ccccc1C [1-ethenyl-2-methylbenzene]
93.00	C=CN1CCCC1=O [1-ethenylpyrrolidin-2-one]
9.00	Cc1cccc(F)c1 [1-fluoro-3-methylbenzene]
41.00	Cc1ccc(F)cc1 [1-fluoro-4-methylbenzene]
67.00	COCCOCCOC [1-methoxy-2-(2-methoxyethoxy)ethane]
91.00	C/C=C/c1ccc(OC)cc1 [1-methoxy-4-[(E)-prop-1-enyl]benzene]
46.00	COCC(C)OC(C)=O (configuration not stated) [1-methoxypropan-2-yl acetate]
